Data as given in patent publication US10975101B2, “Ultra-potent vinca alkaloids: added molecular complexity further disrupts the tublin dimer-dimer interface” (priority 2016, dated 2021).
Where “and” joins values, the source holds several entries; their conditions need not be identical. Equal entries are not always repeated. Where two headings read alike, the source gives them in different places.

Columns and labels:
[1] = tested on: HCT116 (human colorectal carcinoma) cells; conditions: cited from earlier work; for IC50: previously reported (footnote a, Barker et al. 2013) or background art table; for less potent than vinblastine: cell growth inhibition, background art (Leggans 2012; Barker 2012)
[2] = tested on: HCT116/VM46 (a vinblastine-resistant strain of HCT116) cells; conditions: previously reported (footnote a, Barker et al. 2013) or background art table; cited from earlier work
[3] = tested on: L1210 (mouse lymphocytic leukemia) cells; assay: Cell growth inhibition assay, L1210; assay type: cell-based; conditions: 72 hours incubation, phosphatase assay
Protocol: (§1) Compounds were tested for their cell growth inhibition of L1210 (ATCC no. CCL-219, mouse lymphocytic leukemia) cells, HCT116 (ATCC no. CCL-247, human colorectal carcinoma) cells, and HCT116/VM46 (a vinblastine-resistant strain of HCT116) cells in culture. A population of cells (>1×10^6 cells/mL as determined with a hemocytometer) was diluted with an appropriate amount of Dulbecco's Modified Eagle Medium (DMEM, Gibco) containing 10% fetal bovine serum (FBS, Gibco) to a final concentration of 30000 cells/mL.
(§2) To each well of a 96-well plate (Corning Costar), 100 μL of the cell media solution was added with a multichannel pipet. The cultures were incubated at 37° C. in an atmosphere of 5% CO2 and 95% humidified air for 24 hours. The test compounds were added to the plate as follows: test substances were diluted in DMSO to a concentration of 1 mM and 10-fold serial dilutions were performed on a separate 96-well plate. Fresh culture medium (100 μL) was added to each well of cells to constitute 200 μL of medium per well followed by 2 μL of each test agent. Compounds were tested in duplicate (n=2-18 times) at six concentrations between 0-1000 nM or 0-10000 nM. Following addition, cultures were incubated for an additional 72 hours.
(§3) A phosphatase assay was used to establish the IC50 values as follows: the media in each cell was removed and 100 μL of phosphatase solution (100 mg phosphatase substrate in 30 mL of 0.1 M NaOAc, pH 5.5, 0.1% Triton X-100 buffer) was added to each well. The plates were incubated at 37° C. for either 5 minutes (L1210) or 15 minutes (HCT116 and HCT116/VM46). After the given incubation time, 50 μL of 0.1 N NaOH was added to each well and the absorption at 405 nm was determined using a 96 well plate reader. As the absorption is directly proportional to the number of living cells, the IC50 values were calculated and the reported values represent of the average of 4-36 determinations (SD±10%).

[4] = tested on: HCT116 (human colorectal carcinoma) cells; assay: cells; assay type: cell-based
Protocol: as §1, §2, §3

[5] = tested on: vinblastine sensitive tumor cell lines (L1210 and HCT116); assay: Cell growth inhibition, vinblastine-sensitive lines stated together; assay type: cell-based; conditions: for IC50: L1210 and HCT116, range over both lines, read-out: IC50's against vinblastine-sensitive tumor cell lines; for increase in potency relative to vinblastine: vinblastine-sensitive lines
Protocol: as §1, §2, §3

[6] = tested on: HCT116/VM46 (a vinblastine-resistant strain of HCT116) cells; assay: Cell growth inhibition assay, HCT116/VM46; assay type: cell-based, human; conditions: for IC50: 72 hours incubation, phosphatase assay, Pgp-overexpressing resistant line
Protocol: as §1, §2, §3

[7] = tested on: tubulin; assay: BODIPY-vinblastine/tubulin competitive displacement assay; assay type: binding; conditions: tubulin 0.91 μM, BODIPY-VBL 1.8 μM, vinblastine analogue 18 μM, 37° C., average of 4 measurements ± SD
Protocol: As a consequence, the commercially available BODIPY-vinblastine fluorescent probe was used to assess tubulin binding and develop its use in a direct competitive binding assay.^15 [(a) Jiang et al., Cancer Res. 1998, 58, 5389; (b) Zhang et al., PloS one 2009, 4, e4881; (c) Rai et al., PloS one 2012, 7, e44311 and (d) Rashid et al., Biochemistry 2015, 54, 2149.]
In carrying out this study, tubulin (0.1 mg/mL, 0.91 μM) was incubated with BODIPY-vinblastine (BODIPY-VBL, 1.8 μM) and a vinblastine analogue (18 μM) at 37° C. in PEM buffer containing 850 μM GTP. The BODIPY-VBL fluorescence intensity (FI) (ex: 480 nm, em: 514 nm) of 100 μL aliquots from each incubation were measured in a fluorescence micro-plate reader at 37° C. Control studies were performed with BODIPY-VBL (control 1) in the absence of a competitive ligand (maximum FI enhancement due to tubulin binding) and (control 2) in the absence of tubulin (no FI enhancement due to tubulin binding). % BODIPY-VBL displacement was calculated by the formula (control 2 FI−experiment FI)/(control 2 FI−control 1 FI)×100. Reported values are the average 4 measurements±the standard deviation.
100 μL of 1 mg/mL tubulin in PEM and 25 μL of 72 μM BODIPY-VBL in DMSO were added to 850 μL of buffer (PEM+1 mM GTP). The solution was incubated at 37° C. for 15 minutes, after which 25 μL of 720 μM competitive ligand in DMSO was added. The solution was incubated for an additional 60 minutes at 37° C., after which 100 μL aliquots of each incubation were transferred into the wells of a 96-well plate (warmed to 37° C. in the plate reader). The BODIPY-vinblastine fluorescence intensity was measured (Ex 480 nm, Em 514 nm, Cutoff 495 nm) at 37° C. Control measurements were performed with BODIPY-VBL (control 1) in the absence of a competitive ligand (maximum FI enhancement due to tubulin binding) and (control 2) in the absence of tubulin (no FI enhancement due to tubulin binding). % BODIPY-VBL displacement was calculated by the formula (Control 2 FI−Experiment FI)/(Control 2 FI−Control 1 FI)×100. PEM: 80 mM PIPES-K pH 6.8, 2 mM MgSO4, 0.5 mM EGTA pH 6.8.

[8] = 72 hours incubation, phosphatase assay, read-out: IC50, HCT116
[9] = listed beside % displacement in second TABLE 5, read-out: IC50 (nM, HCT116)

Row | SMILES | IC50 [2] | IC50 [3] | IC50 [4, 8] | IC50 [6] | other results
1 | CC[C@]1(NC(N)=O)C[C@H]2CN(CCc3c([nH]c4ccccc34)[C@@](C(=O)OC)(c3cc4c(cc3OC)N(C)[C@H]3[C@@](O)(C(=O)OC)[C@H](OC(C)=O)[C@]5(CC)C=CCN6CC[C@]43[C@@H]65)C2)C1 [Compound 7, reference compound] | 4400 nM |  |  |  | IC50 [1]: 7.5 nM
2 | CC[C@]1(N)C[C@H]2CN(CCc3c([nH]c4ccccc34)[C@@](C(=O)OC)(c3cc4c(cc3OC)N(C)[C@H]3[C@@](O)(C(=O)OC)[C@H](OC(C)=O)[C@]5(CC)C=CCN6CC[C@]43[C@@H]65)C2)C1 [Compound 6, 20′-aminovinblastine] | > 10000 nM |  |  |  | less potent than vinblastine [1]: 100 fold; IC50 [1]: 600 nM
3 | CC[C@]1(NC(=O)N2Cc3ccc(NC(=O)c4ccccc4)cc3C2)C[C@H]2CN(CCc3c([nH]c4ccccc34)[C@@](C(=O)OC)(c3cc4c(cc3OC)N(C)[C@H]3[C@@](O)(C(=O)OC)[C@H](OC(C)=O)[C@]5(CC)C=CCN6CC[C@]43[C@@H]65)C2)C1 [Compound 50] |  | 0.54 nM | 0.62 nM | 13 nM | IC50 [5]: 0.5 to 0.6 nM
4 | CC[C@]1(NC(=O)N2Cc3ccc(NC(=O)c4cnccn4)cc3C2)C[C@H]2CN(CCc3c([nH]c4ccccc34)[C@@](C(=O)OC)(c3cc4c(cc3OC)N(C)[C@H]3[C@@](O)(C(=O)OC)[C@H](OC(C)=O)[C@]5(CC)C=CCN6CC[C@]43[C@@H]65)C2)C1 [Compound 60] |  | 0.059 nM | 0.075 nM | 0.83 nM | IC50 [4, 9]: 0.07 nM; more potent than the C20′ urea 9 ([5]; cell growth inhibition): 10 fold; increase in potency relative to vinblastine ([5]; cell growth inhibition): 100 fold; increase in potency relative to vinblastine, HCT116/VM46 ([6]; resistant line): 700 fold; % displacement of BODIPY-vinblastine bound to tubulin [7]: 100% and 104 ± 12%
5 | CC[C@@H]1C[C@H]2CN(CCc3c([nH]c4ccccc34)[C@@](C(=O)OC)(c3cc4c(cc3OC)N(C)[C@H]3[C@@](O)(C(=O)OC)[C@H](OC(C)=O)[C@]5(CC)C=CCN6CC[C@]43[C@@H]65)C2)C1 [Compound 4, reference compound] | 600 nM |  |  |  | IC50 [1]: 60 nM
6 | CC[C@]1(NC(=O)N2Cc3ccc(NC(C)=O)cc3C2)C[C@H]2CN(CCc3c([nH]c4ccccc34)[C@@](C(=O)OC)(c3cc4c(cc3OC)N(C)[C@H]3[C@@](O)(C(=O)OC)[C@H](OC(C)=O)[C@]5(CC)C=CCN6CC[C@]43[C@@H]65)C2)C1 [Compound 40] |  | 0.47 nM | 0.5 nM | 9.4 nM | IC50 [5]: 0.47 to 0.5 nM
7 | CC[C@]1(N=[N+]=[N-])C[C@H]2CN(CCc3c([nH]c4ccccc34)[C@@](C(=O)OC)(c3cc4c(cc3OC)N(C)[C@H]3[C@@](O)(C(=O)OC)[C@H](OC(C)=O)[C@]5(CC)C=CCN6CC[C@]43[C@@H]65)C2)C1 [Compound 5] | 5500 nM |  |  |  | less potent than vinblastine [1]: 100 fold; IC50 [1]: 690 nM
8 | CCC(=O)Nc1ccc2c(c1)CN(C(=O)N[C@@]1(CC)C[C@H]3CN(CCc4c([nH]c5ccccc45)[C@@](C(=O)OC)(c4cc5c(cc4OC)N(C)[C@H]4[C@@](O)(C(=O)OC)[C@H](OC(C)=O)[C@]6(CC)C=CCN7CC[C@]54[C@@H]76)C3)C1)C2 [Compound 41] |  | 0.46 nM | 0.54 nM | 7.7 nM | 
9 | CC[C@]1(NC(=O)N2C3CCC2CC3)C[C@H]2CN(CCc3c([nH]c4ccccc34)[C@@](C(=O)OC)(c3cc4c(cc3OC)N(C)[C@H]3[C@@](O)(C(=O)OC)[C@H](OC(C)=O)[C@]5(CC)C=CCN6CC[C@]43[C@@H]65)C2)C1 [Compound 26] |  | 40 nM | 20 nM | 250 nM | 
10 | CC[C@]1(NC(=O)N2CCC(N(C)C)C2)C[C@H]2CN(CCc3c([nH]c4ccccc34)[C@@](C(=O)OC)(c3cc4c(cc3OC)N(C)[C@H]3[C@@](O)(C(=O)OC)[C@H](OC(C)=O)[C@]5(CC)C=CCN6CC[C@]43[C@@H]65)C2)C1 (single isomer, unassigned) [Compound 10] |  | 20 nM | 20 nM | 500 nM | 
11 | CC[C@]1(NC(=O)N2Cc3ccc(C)cc3C2)C[C@H]2CN(CCc3c([nH]c4ccccc34)[C@@](C(=O)OC)(c3cc4c(cc3OC)N(C)[C@H]3[C@@](O)(C(=O)OC)[C@H](OC(C)=O)[C@]5(CC)C=CCN6CC[C@]43[C@@H]65)C2)C1 [Compound 30] |  | 0.41 nM | 0.44 nM | 5.9 nM | 
12 | CC[C@]1(NC(=O)N2CCc3ccccc3CC2)C[C@H]2CN(CCc3c([nH]c4ccccc34)[C@@](C(=O)OC)(c3cc4c(cc3OC)N(C)[C@H]3[C@@](O)(C(=O)OC)[C@H](OC(C)=O)[C@]5(CC)C=CCN6CC[C@]43[C@@H]65)C2)C1 [Compound 27] |  | 0.59 nM | 0.69 nM | 6.2 nM | 
13 | CC[C@]1(O)C[C@@H]2CN(CCc3c([nH]c4ccccc34)[C@@](C(=O)OC)(c3cc4c(cc3OC)N(C)[C@H]3[C@@](O)(C(=O)OC)[C@H](OC(C)=O)[C@]5(CC)C=CCN6CC[C@]43[C@@H]65)C2)C1 [Compound 1, Vinblastine, reference compound] | 600 nM |  |  |  | % displacement of BODIPY-vinblastine bound to tubulin [7]: 31 ± 9%; % displacement of BODIPY-vinblastine bound to tubulin ([7]; listed as vinblastine): 31%
14 | CC[C@]1(NC(=O)N2CC=CC2)C[C@H]2CN(CCc3c([nH]c4ccccc34)[C@@](C(=O)OC)(c3cc4c(cc3OC)N(C)[C@H]3[C@@](O)(C(=O)OC)[C@H](OC(C)=O)[C@]5(CC)C=CCN6CC[C@]43[C@@H]65)C2)C1 [Compound 22] |  | 0.53 nM | 0.5 nM | 5.7 nM | 
15 | CC[C@]1(O)C[C@H]2CN(CCc3c([nH]c4ccc(F)cc34)[C@@](C(=O)OC)(c3cc4c(cc3OC)N(C)[C@H]3[C@@](O)(C(=O)OC)[C@H](OC(C)=O)[C@]5(CC)C=CCN6CC[C@]43[C@@H]65)C2)C1 [Compound 71, 10′-fluorovinblastine, reference compound] |  |  |  |  | IC50 [4, 9]: 0.8 nM; increase in potency relative to vinblastine ([5]; cell growth inhibition): roughly 10 fold; % displacement of BODIPY-vinblastine bound to tubulin [7]: 48 ± 7%
